The source made the active and inactive calls. The rule behind the calls is not given here.
Tested on: CCRIS mutagenicity, Ames/micronucleus/aberration tests
Experiment: CCRIS mutagenicity studies
[1] = Test System: AMES SALMONELLA TYPHIMURIUM, Strain/Indicator: TA98, Metabolic Activation: NONE, Method: PREINCUBATION
[2] = Test System: AMES SALMONELLA TYPHIMURIUM, Strain/Indicator: TA100, Metabolic Activation: NONE, Method: PREINCUBATION
[3] = Test System: AMES SALMONELLA TYPHIMURIUM, Strain/Indicator: TA1535, Metabolic Activation: NONE, Method: PREINCUBATION
[4] = Test System: AMES SALMONELLA TYPHIMURIUM, Strain/Indicator: TA1537, Metabolic Activation: NONE, Method: PREINCUBATION
[5] = Test System: AMES SALMONELLA TYPHIMURIUM, Strain/Indicator: TA1538, Metabolic Activation: NONE, Method: PREINCUBATION
[6] = Test System: AMES SALMONELLA TYPHIMURIUM, Strain/Indicator: TA98, Metabolic Activation: NONE
[7] = Test System: AMES SALMONELLA TYPHIMURIUM, Strain/Indicator: TA98, Metabolic Activation: RAT, LIVER, S-9, AROCLOR 1254
[8] = Test System: AMES SALMONELLA TYPHIMURIUM, Strain/Indicator: TA100, Metabolic Activation: NONE
[9] = Test System: AMES SALMONELLA TYPHIMURIUM, Strain/Indicator: TA100, Metabolic Activation: RAT, LIVER, S-9, AROCLOR 1254

Measured: mutagenic call

CCOc1cccc([N+](=O)[O-])c1
inactive: [1] inactive; negative | Test System: AMES SALMONELLA TYPHIMURIUM, Strain/Indicator: TA98, Method: PREINCUBATION inactive; negative | [2] inactive; negative | Test System: AMES SALMONELLA TYPHIMURIUM, Strain/Indicator: TA100, Method: PREINCUBATION inactive; negative | [3] inactive; negative | Test System: AMES SALMONELLA TYPHIMURIUM, Strain/Indicator: TA1535, Method: PREINCUBATION inactive; negative | [4] inactive; negative | Test System: AMES SALMONELLA TYPHIMURIUM, Strain/Indicator: TA1537, Method: PREINCUBATION inactive; negative | [5] inactive; negative | Test System: AMES SALMONELLA TYPHIMURIUM, Strain/Indicator: TA1538, Method: PREINCUBATION inactive; negative

C[As+](C)(C)CC(=O)[O-]
inactive: Test System: AMES SALMONELLA TYPHIMURIUM, Strain/Indicator: TA97, Metabolic Activation: NONE inactive; negative | Test System: AMES SALMONELLA TYPHIMURIUM, Strain/Indicator: TA97, Metabolic Activation: RAT, GUT-FLORA EXTRACT inactive; negative | Test System: AMES SALMONELLA TYPHIMURIUM, Strain/Indicator: TA97, Metabolic Activation: RAT, LIVER, S-9, AROCLOR 1254 inactive; negative | [6] inactive; negative | Test System: AMES SALMONELLA TYPHIMURIUM, Strain/Indicator: TA98, Metabolic Activation: RAT, GUT-FLORA EXTRACT inactive; negative | [7] inactive; negative | [8] inactive; negative | Test System: AMES SALMONELLA TYPHIMURIUM, Strain/Indicator: TA100, Metabolic Activation: RAT, GUT-FLORA EXTRACT inactive; negative | [9] inactive; negative | Test System: CHINESE HAMSTER V-79, Strain/Indicator: V-79/6-THIOGUANINE (HGPRT), Metabolic Activation: NONE, Method: SUSPENSION/PLATE inactive; negative | Test System: CHINESE HAMSTER V-79, Strain/Indicator: V-79/6-THIOGUANINE (HGPRT), Metabolic Activation: RAT, LIVER, S-9, AROCLOR 1254, Method: SUSPENSION/PLATE inactive; negative | Test System: Mouse lymphoma, Strain/Indicator: L5178Y (TK+/TK-), Metabolic Activation: None, Method: Microwell inactive; negative

OCCOCCO
inactive: Test System: AMES SALMONELLA TYPHIMURIUM, Strain/Indicator: TA97A, Metabolic Activation: NONE inactive; negative | Test System: AMES SALMONELLA TYPHIMURIUM, Strain/Indicator: TA97A, Metabolic Activation: RAT, LIVER, S-9, AROCLOR 1254 inactive; negative | Test System: AMES SALMONELLA TYPHIMURIUM, Strain/Indicator: TA98, Metabolic Activation: HAMSTER, LIVER, S-9, AROCLOR 1254 (10%), Method: PREINCUBATION inactive; negative | [6] inactive; negative | [1] inactive; negative | [7] inactive; negative | Test System: AMES SALMONELLA TYPHIMURIUM, Strain/Indicator: TA98, Metabolic Activation: RAT, LIVER, S-9, AROCLOR 1254 (10%), Method: PREINCUBATION inactive; negative | Test System: AMES SALMONELLA TYPHIMURIUM, Strain/Indicator: TA100, Metabolic Activation: HAMSTER, LIVER, S-9, AROCLOR 1254 (10%), Method: PREINCUBATION inactive; negative | [8] inactive; negative | [2] inactive; negative | [9] inactive; negative | Test System: AMES SALMONELLA TYPHIMURIUM, Strain/Indicator: TA100, Metabolic Activation: RAT, LIVER, S-9, AROCLOR 1254 (10%), Method: PREINCUBATION inactive; negative | Test System: AMES SALMONELLA TYPHIMURIUM, Strain/Indicator: TA102, Metabolic Activation: NONE inactive; negative | Test System: AMES SALMONELLA TYPHIMURIUM, Strain/Indicator: TA102, Metabolic Activation: RAT, LIVER, S-9, AROCLOR 1254 inactive; negative | Test System: AMES SALMONELLA TYPHIMURIUM, Strain/Indicator: TA1535, Metabolic Activation: HAMSTER, LIVER, S-9, AROCLOR 1254 (10%), Method: PREINCUBATION inactive; negative | [3] inactive; negative | Test System: AMES SALMONELLA TYPHIMURIUM, Strain/Indicator: TA1535, Metabolic Activation: RAT, LIVER, S-9, AROCLOR 1254 (10%), Method: PREINCUBATION inactive; negative | Test System: AMES SALMONELLA TYPHIMURIUM, Strain/Indicator: TA1537, Metabolic Activation: HAMSTER, LIVER, S-9, AROCLOR 1254 (10%), Method: PREINCUBATION inactive; negative | [4] inactive; negative | Test System: AMES SALMONELLA TYPHIMURIUM, Strain/Indicator: TA1537, Metabolic Activation: RAT, LIVER, S-9, AROCLOR 1254 (10%), Method: PREINCUBATION inactive; negative

Nc1cc(S(=O)(=O)O)cc2cc(S(=O)(=O)O)cc(O)c12
inactive: [1] inactive; negative | Test System: AMES SALMONELLA TYPHIMURIUM, Strain/Indicator: TA98, Metabolic Activation: RAT LIVER S-9, PHENOBARBITAL AND BETA-NAPHTHOFLAVONE, Method: PREINCUBATION inactive; negative | [2] inactive; negative | Test System: AMES SALMONELLA TYPHIMURIUM, Strain/Indicator: TA100, Metabolic Activation: RAT LIVER S-9, PHENOBARBITAL AND BETA-NAPHTHOFLAVONE, Method: PREINCUBATION inactive; negative | [3] inactive; negative | Test System: AMES SALMONELLA TYPHIMURIUM, Strain/Indicator: TA1535, Metabolic Activation: RAT LIVER S-9, PHENOBARBITAL AND BETA-NAPHTHOFLAVONE, Method: PREINCUBATION inactive; negative | [4] inactive; negative | Test System: AMES SALMONELLA TYPHIMURIUM, Strain/Indicator: TA1537, Metabolic Activation: RAT LIVER S-9, PHENOBARBITAL AND BETA-NAPHTHOFLAVONE, Method: PREINCUBATION inactive; negative | [5] inactive; negative | Test System: AMES SALMONELLA TYPHIMURIUM, Strain/Indicator: TA1538, Metabolic Activation: RAT LIVER S-9, PHENOBARBITAL AND BETA-NAPHTHOFLAVONE, Method: PREINCUBATION inactive; negative | Test System: E.COLI, Strain/Indicator: WP2UVRA, Metabolic Activation: NONE, Method: PREINCUBATION inactive; negative | Test System: E.COLI, Strain/Indicator: WP2UVRA, Metabolic Activation: RAT LIVER S-9, PHENOBARBITAL AND BETA-NAPHTHOFLAVONE, Method: PREINCUBATION inactive; negative

From PubChem BioAssay AID1259407 (Chemical Carcinogenesis Research Information System (CCRIS), 2018)
